Assay results: patent publication US6824770B1, “Adenovirus gene expression system” (Cornell Research Foundation, Inc., priority 1993, dated 2004)
Where two headings read alike, the source gives them in different places.

Assays:
mouse TRH-R = target: T1, mouse TRH-R (Mus musculus, UniProt P21761); assay: [3H]methylTRH binding to intact AdCMVmTRHR-infected cells; conditions: TRH-Rs expressed on cells after infection with AdCMVmTRHR; data not shown; read-out: dissociation constant for methylTRH binding
T1 construct: expressed in transfected cells; host or cells: Infected with AdCMVmTRHR or transfected with pAdCMVmTRHR: HeLa, GHY, AtT-20, C6, CV1, COS-1 and KB cells
T1 sequence (P21761 1-393): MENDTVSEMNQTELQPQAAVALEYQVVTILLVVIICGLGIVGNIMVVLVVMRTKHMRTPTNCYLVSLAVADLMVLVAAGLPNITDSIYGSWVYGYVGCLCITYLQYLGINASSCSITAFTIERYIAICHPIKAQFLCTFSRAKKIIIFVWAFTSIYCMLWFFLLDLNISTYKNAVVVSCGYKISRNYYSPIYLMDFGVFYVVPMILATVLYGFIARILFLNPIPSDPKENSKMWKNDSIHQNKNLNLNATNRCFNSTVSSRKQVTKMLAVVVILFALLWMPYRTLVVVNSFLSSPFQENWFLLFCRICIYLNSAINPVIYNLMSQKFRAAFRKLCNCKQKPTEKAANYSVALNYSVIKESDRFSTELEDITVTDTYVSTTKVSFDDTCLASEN
Procedure: (§1) Cells were seeded in wells (3.8 cm^2) pretreated with poly-L-lysine and were incubated in medium supplemented with serum in a humidified atmosphere of 5% CO2. After a minimum of 4 hours, the medium was aspirated and replaced with 0.3 ml of medium without serum, AdCMVmTRHR (300 particles/cell) was added and the cells were incubated at 37° C. After 1 hour, 0.7 to 1.0 ml medium containing serum was added and the incubation continued for 3 to 72 hours. Infection with AdCMVmTRHR was performed in an identical manner for all cell types except that the incubation mediums were different. The mediums were: Dulbecco's modified Eagle's medium supplemented with 5% Nu-Serum for human cervical cancer HeLa cells, monkey kidney Cos-1 and CV-1 cells, and rat glioma C6 cells; Ham's F-10 medium with 15% horse serum and 2.5% fetal bovine serum for rat pituitary tumor GHY cells; Delbecco's modified Eagle's medium with 10% Nu-Serum for mouse pituitary tumor AtT-20 cells; and modified Eagle's medium with 10% fetal bovine serum for human epidermoid KB cells. None of these cell lines express TRH-Rs. Cells were studied 16 to 24 hours after infection with 300 AdCMVmTRHR particles per cell which yielded maximal TRH-R expression. […]

TRH-R [1] = target: T2, TRH-R (Mus musculus, UniProt P21761); assay: methylTRH stimulation of [3H]IP formation (TRH response); format: cell-based; conditions: uninfected HeLa, GHY, AtT, C6, CV1 and COS-1 cells
T2 construct: expressed in transfected cells; host or cells: Infected with AdCMVmTRHR or transfected with pAdCMVmTRHR: HeLa, GHY, AtT-20, C6, CV1, COS-1 and KB cells
Procedure: as §1, with “TRH-Rs.” for “TRH-Rs. Cells were studied 16 to 24 hours after infection with 300 AdCMVmTRHR particles per cell which yielded maximal TRH-R expression.”
Infected or transfected cells were labelled for 24 hours with [^3H]myo-inositol, stimulated with TRH or methylTRH in a balanced salt solution containing 10 mM LiCl and [^3H]IPs were measured as described by Imai et al., 1987, Methods. […]

TRH-R [2] = target: T2, TRH-R; assay: Internalization of TRH-Rs (acid-resistant specifically bound [3H]methylTRH); format: cell-based; conditions: methylTRH-bound receptors
Procedure: Cells were seeded in wells (3.8 cm^2) pretreated with poly-L-lysine and were incubated in medium supplemented with serum in a humidified atmosphere of 5% CO2. After a minimum of 4 hours, the medium was aspirated and replaced with 0.3 ml of medium without serum, AdCMVmTRHR (300 particles/cell) was added and the cells were incubated at 37° C. After 1 hour, 0.7 to 1.0 ml medium containing serum was added and the incubation continued for 3 to 72 hours. Infection with AdCMVmTRHR was performed in an identical manner for all cell types except that the incubation mediums were different. The mediums were: Dulbecco's modified Eagle's medium supplemented with 5% Nu-Serum for human cervical cancer HeLa cells, monkey kidney Cos-1 and CV-1 cells, and rat glioma C6 cells; Ham's F-10 medium with 15% horse serum and 2.5% fetal bovine serum for rat pituitary tumor GHY cells; Delbecco's modified Eagle's medium with 10% Nu-Serum for mouse pituitary tumor AtT-20 cells; and modified Eagle's medium with 10% fetal bovine serum for human epidermoid KB cells. None of these cell lines express TRH-Rs. Cells were studied 16 to 24 hours after infection with 300 AdCMVmTRHR particles per cell which yielded maximal TRH-R expression.
Internalization was measured as specifically bound [^3H]methylTRH that was resistant to acid wash (Hinkle et al., 1982, J.Biol. Chem., vol. 257, pp. 5462-5470; and Nussenzveig et al., 1993, J.Biol. Chem., vol. 268, pp. 2389-2392, which disclosures are hereby incorporated by reference). Specific acid resistant binding was calculated by subtracting the nonspecifically bound from the [^3H]methylTRH remaining after acid/salt elution.

TRH-R [3] = target: T2, TRH-R; format: cell-based

## Cn1cnc(C[C@H](NC(=O)[C@@H]2CCC(=O)N2)C(=O)N2CCC[C@H]2C(N)=O)c1 [methylTRH]
Mouse TRH-R
  Kd: 1.09 ± 0.26 nM
TRH-R [1]
  response to methylTRH (IP formation) in uninfected cells: did not respond
TRH-R [2]; AdCMVmTRHR-infected COS-1 cells (printed COA-1)
  TRH-Rs internalized after 60 minutes: 62±2.1%
TRH-R [2]; AdCMVmTRHR-infected GHY cells
  TRH-Rs internalized after 60 minutes: 64±7.0%
TRH-R [2]; AdCMVmTRHR-infected KB cells
  TRH-Rs internalized after 60 minutes: 71±2.6%

## NC(=O)[C@@H]1CCCN1C(=O)[C@H](Cc1cnc[nH]1)NC(=O)[C@@H]1CCC(=O)N1 [TRH, thyrotropin-releasing hormone]
TRH-R [3]; AdCMVmTRHR-infected AtT-20 cells, 60 minutes 1 μM TRH
  TRH-induced desensitization: decrease of rate of IP formation compared to control: 41±4.7%
TRH-R [3]; AdCMVmTRHR-infected COS-1 cells, 60 minutes 1 μM TRH
  TRH-induced desensitization: did not desensitize
TRH-R [3]; AdCMVmTRHR-infected GHY cells, after 60 minutes of stimulation by 1 μM TRH
  TRH-induced desensitization: decrease of the response to TRH: 49±5.2%
TRH-R [3]; AdCMVmTRHR-infected KB cells, 60 minutes 1 μM TRH
  TRH-induced desensitization: 0±10%

## CCCCCCCCCCCCCC(=O)O[C@@H]1[C@@H](C)[C@@]2(O)[C@@H](C=C(CO)C[C@]3(O)C(=O)C(C)=C[C@@H]23)[C@@H]2C(C)(C)[C@]12OC(C)=O [PMA]
TRH-R [3]; AdCMVmTRHR-infected AtT-20 cells, 0.1 μM PMA 60 minutes prior to TRH
  PMA-induced inhibition of the TRH response: 37±4.0%
TRH-R [3]; AdCMVmTRHR-infected COS-1 cells, 0.1 μM PMA 60 minutes prior to TRH
  PMA-induced inhibition of the TRH response: 37±8.0%
TRH-R [3]; AdCMVmTRHR-infected GHY cells, 0.1 μM PMA added 60 minutes prior to TRH
  PMA-induced inhibition of the TRH response: 25±4.6%
TRH-R [3]; AdCMVmTRHR-infected KB cells, 0.1 μM PMA 60 minutes prior to TRH
  PMA-induced inhibition of the TRH response: 0±10%
